The values that follow come from article PMC7307922 (Journal of Medicinal Chemistry, 2020).

By Emax is commonly meant the greatest response seen or fitted, relative to the assay's reference.

Each structure is given as a SMILES string. Positions count from the first letter of the chain named.

The target in one series is T1, hFFA3 R71A (Homo sapiens, UniProt O14843, R71A).
T1 sequence (O14843 1-346 R71A): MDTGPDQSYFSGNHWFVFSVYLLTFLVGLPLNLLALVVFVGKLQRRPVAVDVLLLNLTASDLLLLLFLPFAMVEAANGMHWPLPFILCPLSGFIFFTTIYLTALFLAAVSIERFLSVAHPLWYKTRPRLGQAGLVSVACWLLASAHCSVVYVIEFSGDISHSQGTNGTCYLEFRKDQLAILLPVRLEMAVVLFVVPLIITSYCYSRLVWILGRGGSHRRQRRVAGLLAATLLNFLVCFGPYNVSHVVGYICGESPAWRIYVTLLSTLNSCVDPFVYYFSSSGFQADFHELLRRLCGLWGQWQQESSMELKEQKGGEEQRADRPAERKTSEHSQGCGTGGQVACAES
The series can be described thus: Potency at FFA3 mutant R71A. The series is classed as cell-based. The procedure:
The previously published compound 1 was not affected by mutation of either R185A or R258A in the orthosteric binding site, and the compounds were therefore believed to be allosteric modulators. […] After the publication of the FFA1 crystal structure in complex with an allosteric agonist located in the TM region close to the intracellular site,[32] a homology model of hFFA3 was constructed using Modeller. […] Thus, additional docking of (R)-1 in this site were performed to find poses where Q131, but not R126, show a central role in binding. […] The narrow binding cavity around the core scaffold is in agreement with the restrained SAR observed for this series and the furan moiety pointing out of the binding cavity might explain the flexibility in substituents at this site (Figure 3c,d). Although Q131A impacts the potency of (R)-1 with high significance, the magnitude of the effect is lower than what would be generally expected for the removal of a hydrogen bond interaction; thus, additional studies are required to confirm the proposed binding site.

The next series has as its target T2, hFFA3 (Homo sapiens, UniProt O14843).
T2 sequence (O14843 1-346): T1 sequence (O14843 1-346 R71A) with A71R
Put plainly: biochemical. The settings on record: for GTPγS pEC50: hFFA3, mean of ≥3 independent experiments ± standard error; for Emax: read-out: GTPγS Emax. Put shortly:
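Membranes from doxycycline (100 ng/mL)-induced Flp-In T-REx HEK293 cells expressing FFA3 incubated with [^35S]GTPγS (50 nCi/tube) 1 h at 25 °C. Bound [^35S]GTPγS collected by filtration and counted by liquid scintillation as a measure of Gi/o activation.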

A further series concerns FFA3 R258A. More on the design: method as in PMID 24870406. The settings on record: orthosteric binding site; cited from earlier work.
For another series, the target named is T3, human FFA1 (Homo sapiens, UniProt O14842).
T3 construct: expressed in transfected cells; host or cells: HEK293T, transient co-transfection
Put plainly: FFA1 counterscreen, arrestin BRET assay. The series is classed as cell-based. Conditions: 10 μM. The procedure: Counter screening against FFA1, FFA2 , FF A4 and GPR84
Counter screening against FFA1 and FFA4 was carried out using a modified version of a previously described bioluminescence resonance energy transfer (BRET) designed to assess recruitment of b-ar r estin-2 to each receptor.2 Briefly, HEK293T cells were co-transfected with plasmids en coding either human FFA1 or human FFA4 tagged at their C -termini with eYFP and with a plasmid encoding b-ar r estin-2 tagged at its N-terminal with Nanoluciferase. 24 h post transfection cells were seeded into black with clear bottom 96-well plates that had been coated with poly-D-lysine. Cells were then cultured a further 24 h prior to experiments. Cells were then washed twice with Hank’s Balanced salt solution supplemented with 10 mM HEPES (HBSSH) then incubated at 37 °C in HBSSH for 30 min prior to running the assay. The Nluc substrate, coelenterazine h was then added to a f inal concentration of 5 µM and cells were incubated at 37 °C for 10 min prior to adding test agonists. Following a further 5 min incubation, luminescent emission at 475 nm and 535 nm was measured using a Pherastar FS reader (BMG Labtech, Aylesbury, UK) pla te reader set for bottom plate optics. The BRET ratio was then calculated as 535/475 emissions and all BRET ratio values were normalized against the maxima l BRET ratio obtained using reference agonists for the respective receptors (TUG -891 for FFA4, TUG-770 for FFA1). For antagonism studies, the same protocol was used, however the antagonist was added 15 min prior to the addition of an EC 80 concentration of the reference agonist for each receptor. […]
(In general: A counterscreen serves to expose hits that act by an unwanted route or on another target.)

Series [1] has as its system cells dissociated from mouse dorsal root ganglia. Put plainly: Intracellular calcium in dorsal root ganglion cells of wild-type and FFA3 KO mice. The series is classed as cell-based. Conditions: 5 μM; DRG cells of wild type vs FFA3 KO mice. (In general: Calcium flux is commonly read through the fluorescence of an indicator in the cells.)
Procedure: Colonic innervating DRGs were isolated from the T9-L2 region of the spinal cord of C57/BL6 mice and from FFA3 knock-out animals and immediately placed in cold Hanks’ balanced salt solution (HBSS; Sigma-Aldrich). Isolated DRGs were initially digested with HBSS containing L-cysteine (0.3 mg/mL) and papain (2.0 mg/mL) for 20 min at 37 °C. The solution was removed and replaced with HBSS contain collagenase (4.0 mg/mL) and dispase (4.0 mg/mL) (20 min at 37 °C) for further digestion. The collagenase solution was then replaced with DMEM to stop the reaction. The DRGs were finally dissociated by mechanical trituration using a pipette. Dissociated cells were plated on matrigel-coated coverslips and placed in an incubator (37 °C and 5% CO2). Following a 2 h incubation, cells were flooded with 90% DMEM (Sigma) supplemented with 10% fetal calf serum and 1% PenStrep and further incubated overnight at 37 °C and 5% CO2.
To measure intracellular calcium and its potential regulation, dissociated cells on the coverslips were loaded with Fura 8-AM (3 μM) (Stratech Scientific Limited) for 20 min at 37 °C in the dark. […]
Series [2] is described as follows: Chemical stability in DMSO (NMR). The series is classed as physicochemical. The procedure: To further ensure the suitability of 57 as a tool compound for in vitro studies, the chemical stability was also evaluated in dimethyl sulfoxide (DMSO).

T3 sequence (O14842 whole entry): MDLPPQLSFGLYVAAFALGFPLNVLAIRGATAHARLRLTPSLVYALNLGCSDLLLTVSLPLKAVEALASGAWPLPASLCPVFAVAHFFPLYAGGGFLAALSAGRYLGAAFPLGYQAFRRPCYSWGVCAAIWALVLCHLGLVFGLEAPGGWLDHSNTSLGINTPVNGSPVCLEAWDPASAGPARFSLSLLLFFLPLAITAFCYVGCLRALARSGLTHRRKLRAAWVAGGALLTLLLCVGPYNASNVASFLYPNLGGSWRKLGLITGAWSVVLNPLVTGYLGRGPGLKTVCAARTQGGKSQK

As to `CC1=C(C(=O)Nc2ccccc2C)C(c2ccco2)C2=C(CCCC2=O)N1` (stereo not drawn) [Compound 1, 4-(Furan-2-yl)-2-methyl-5-oxo-N-(o-tolyl)-1,4,5,6,7,8-hexahydroquinoline-3-carboxamide, reference compound], the “effect of mutation R71A on potency” value on hFFA3 R71A is “did not affect”. In addition, the “higher potency than 3-furyl derivative 2” value at hFFA3 (GTPγS assay) is reported as “approximately 2 fold”. Further, on hFFA3, the “GTPγS pEC50” value was found to be 5.65 ± 0.07 and the Emax is 100%. For the same molecule, the “effect of mutation R258A” value in the series with FFA3 R258A is listed as “not affected”. In addition, on human FFA1, the “activity at FFA1” value is “No significant activity”.

Regarding `CC1=C(C(=O)Nc2cc(Cl)ccc2Cl)C(c2ccco2)C2=C(CCCC2=O)N1` (stereo not drawn) [Compound 16, reference compound], on hFFA3, the “GTPγS pEC50” value is listed as 5.74 ± 0.11 and the Emax is 120%. Moreover, on human FFA1, the “activity at FFA1” value is given as “No significant activity”.

As for `CCCC1C(C(=O)Nc2cc(Cl)ccc2Cl)=C(C)NC2=C1C(=O)CCC2` (stereo not drawn) [Compound 57, N-(2,5-Dichlorophenyl)-2-methyl-5-oxo-4-propyl-1,4,5,6,7,8-hexahydroquinoline-3-carboxamide], in series [1], the “elevation of intracellular calcium levels” value is listed as “large elevation in intracellular calcium levels in wild type but not FFA3 KO cells”. In addition, the “chemical stability in DMSO” value was “complete stability” in series [2] (4 °C, after 1 and 30 days, NMR); “fully stable” in series [2] (rt, not protected from light, 7 days); “minor decomposition” in series [2] (rt, not protected from light, 30 days). On human FFA1, the “activity at FFA1” value is on record as “No significant activity”.

For the molecule `CC1=C(C(=O)Nc2cc(Cl)ccc2Cl)C(C2CCCC2)C2=C(CCCC2=O)N1` (stereo not drawn) [Compound 63, 4-Cyclopentyl-N-(2,5-dichlorophenyl)-2-methyl-5-oxo-1,4,5,6,7,8-hexahydroquinoline-3-carboxamide], the “activity at FFA1” value on human FFA1 was “No significant activity”.
